In brackets after ≈: the same amount, converted by molar mass. Like-named read-outs stand apart in the source and are kept apart here.
Key:
[1] = system: Saccharomyces cerevisiae ATCC 9763; test: Antifungal activity in vitro, serial dilution in RPMI 1640; type: cell-based; settings: for Antifungal activity Saccharomyces cerevisiae ATCC 9763 MIC: Table 2A, RPMI 1640, pH 7.0, A531 at most 20% of control; for MIC Saccharomyces cerevisiae ATCC 9763: Table 2B
How it was run: (§1)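 Growth (A531) plotted against compound concentration after serial dilution in RPMI 1640 buffered to pH 7.0, following the M27-A2 reference method. MIC: lowest concentration with A531 ≤20% of control; IC50: concentration interpolated at half control A531.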

[2] = system: Candida parapsilosis DSM 5784; test: as above; type: cell-based; settings: Table 2B
How it was run: as §1

[3] = system: Candida glabrata DSM 11226; test: as above; type: cell-based; settings: Table 2A; RPMI 1640, pH 7.0
How it was run: as §1

[4] = system: Candida stellatoidea CBS 1905; test: as above; type: cell-based; settings: Table 2B
How it was run: as §1

[5] = system: Candida quilliermondii DSM 11947; test: as above; type: cell-based; settings: Table 2B
How it was run: as §1

[6] = system: Aspergillus niger LOCK E201; test: as above; type: cell-based; settings: Table 2B
How it was run: as §1

[7] = system: Candida dubliniensis CBS 7987; test: as above; type: cell-based; settings: Table 2B
How it was run: as §1

[8] = system: Candida pseudotropicalis KKP 324; test: as above; type: cell-based; settings: Table 2B
How it was run: as §1

Candida krusei DSM 6128 = test: as above; type: cell-based; settings: Table 2A; RPMI 1640, pH 7.0
How it was run: as §1

[9] = system: Candida lipolytica KKP 322; test: as above; type: cell-based; settings: Table 2B
How it was run: as §1

[10] = system: Candida albicans ATCC 10231; test: as above; type: cell-based; settings: for Antifungal activity Candida albicans ATCC 10231 IC50 / Antifungal activity Candida albicans ATCC 10231 MIC: Table 2A, RPMI 1640, pH 7.0; for Antifungal activity Candida albicans ATCC 10231 IC50: A531 50% of control; for Antifungal activity Candida albicans ATCC 10231 MIC: A531 at most 20% of control; for MIC Candida albicans ATCC 10231: Table 2B
How it was run: as §1

Candida arborea KKP 319 = test: as above; type: cell-based; settings: Table 2B
How it was run: as §1

[11] = system: Candida tropicalis KKP 334; test: as above; type: cell-based; settings: Table 2A; RPMI 1640, pH 7.0
How it was run: as §1

[12] = system: Trichoderma viride LOCK E159; test: as above; type: cell-based; settings: Table 2B
How it was run: as §1

LLC-PK1 = test: Cytotoxic activity against mammalian cells in tissue culture (MTT); type: cell-based, pig
Protocol: (§2) For examinations were used selected cell lines: CCRF-CEM—human acute lymphoblastic leukemia; HepG2—human malignant hepatoma; LLC-PK1—epithelial cell of pig kidney; All lines were from ATCC collection.
(§3) The study are conducted using described below methods of culturing and determination of cytotoxic activity.
(§4) CCRF-CEM cells were cultured in medium RPMI 1640+10% fetal bovine serum (FBS), LLC-PK1 cells in medium Medium 199+3% FBS, HepG2 cells in medium MEM+10% FBS. All media contained 100 μg/ml of penicillin G and streptomycin. 24-wells microplates containing appropriate medium were inoculated with the cells in amount of 1.2×10^4 cells/well and allowed to stand overnight. Next, tested compounds as solution in dimethylsulfoxide (DMSO) were added in volume of 10 μl (serial 2× dilutions). To control well 10 μl of DMSO was added. Microplates with cell suspensions were incubated for 120 h at temperature 37° C. at atmosphere of 95%/5% CO2. After incubation, to all wells 200 μl of solution of 3-(4,5-dimethylthiazole-2-yl)-2,5-diphenylotetrazole bromide (MTT) in PBS (4 mg/ml) was added and plates were further incubated for 4 h at 37° C. Next, to dissolve crystals of formazane 1 ml of DMSO was added and absorption of solutions was measured at the wavelength λ=540 nm (A540), using a microplates reader (Victor^3, Perkin-Wallac). […] From these graphs IC50 values were read, that is concentration of tested compound in the presence at which A540 value is half of A540 value measured in the control sample.

Human erythrocytes = test: Hemotoxicity (hemolytic activity)
How it was run: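 Human erythrocytes in saline (2×10^7/ml) were incubated with serially diluted compound at 37 °C for 30 min, then centrifuged. Released hemoglobin was read as A540 against 0.1% Triton X-100 as full hemolysis. EH50 is the interpolated concentration giving 50% of the control A540.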

HepG2 = test: Cytotoxic activity against mammalian cells in tissue culture (MTT); type: cell-based, human
Protocol: as §2, §3, §4

CCRF-CEM = test: as above; type: cell-based, human
Protocol: as §2, §3, §4

Candida albicans STY19 = test: Antifungal activity towards resistant (MDR) strains; type: cell-based; settings: 5674 mutant derivative, deletion of CDR1
Protocol: (§5) The determination of antifungal activity was performed by the serial dilutions method in buffered RPMI 1640 medium, in a 96-wells microplates, according to the standard procedure (National Committee for Clinical Laboratory Standards. Reference method for broth dilution antifungal susceptibility testing of yeast, approved standard, 2nd ed. M27-A2 vol. 22 Wayne, Pa., 2002). The optical density of cells suspension was measured using a microplates reader (Victor^3, Perkin-Elmer) at the wavelength λ=660 nm (A660). On the basis of received results the diagrams on interrelation between the A660 value and the concentration of tested compound were made. From these graphs MIC values were read, that are the concentrations of tested compounds, in the presence at which A660 value is at most 20% of A660 value measured in control sample.

Candida albicans Gu4 = test: as above; type: cell-based; settings: fluconazole sensitive, parent strain for Gu5
Protocol: as §5

Candida albicans Gu5 = test: as above; type: cell-based; settings: fluconazole-resistant due to the overexpression of CDR1 and CDR2
Protocol: as §5

Candida albicans B3 = test: as above; type: cell-based; settings: fluconazole sensitive, parent strain for B4
Protocol: as §5

Candida albicans B4 = test: as above; type: cell-based; settings: fluconazole-resistant due to the overexpression of CaMDR1
Protocol: as §5

Candida albicans STY7 = test: as above; type: cell-based; settings: 5674 mutant derivative, deletion of CDR2
Protocol: as §5

Candida albicans STY31 = test: as above; type: cell-based; settings: 5674 mutant derivative, deletion of CDR1 and CDR2
Protocol: as §5

Candida albicans F2 = test: as above; type: cell-based; settings: fluconazole sensitive, parent strain for F5
Protocol: as §5

Candida albicans 5674 = test: as above; type: cell-based; settings: C. albicans 5674 overexpressing CDR1 and CDR2
Protocol: as §5

Candida albicans F5 = test: as above; type: cell-based; settings: fluconazole-resistant due to the overexpression of CaMDR1 and ERG11
Protocol: as §5

Compound: CCCN(CCC)[C@@H]1[C@H](O)[C@H](O[C@H]2/C=C/C=C/C=C/C=C/CC/C=C/C=C/[C@H](C)[C@@H](O)[C@@H](C)[C@H](C)OC(=O)C[C@H](O)C[C@H](O)C[C@H](O)CC[C@@H](O)[C@H](O)C[C@]3(O)C[C@H](O)[C@@H](C(=O)O)[C@H](C2)O3)O[C@H](C)[C@H]1O [Compound N22, N,N-di-n-propylnystatin A1]
- Antifungal activity Saccharomyces cerevisiae ATCC 9763 MIC [1]: 2 µg/mL
- MIC Saccharomyces cerevisiae ATCC 9763 [1]: 2 µg/mL (≈ 1.98 µM)
- MIC Candida parapsilosis DSM 5784 [2]: 8 µg/mL (≈ 7.92 µM)
- Antifungal activity Candida glabrata DSM 11226 MIC [3]: 4 µg/mL
- MIC Candida stellatoidea CBS 1905 [4]: 4 µg/mL (≈ 3.96 µM)
- MIC Candida quilliermondii DSM 11947 [5]: 8 µg/mL (≈ 7.92 µM)
- MIC Aspergillus niger LOCK E201 [6]: 8 µg/mL (≈ 7.92 µM)
- MIC Candida dubliniensis CBS 7987 [7]: 2 µg/mL (≈ 1.98 µM)
- MIC Candida pseudotropicalis KKP 324 [8]: 4 µg/mL (≈ 3.96 µM)
- Antifungal activity Candida krusei DSM 6128 MIC (Candida krusei DSM 6128): 8 µg/mL
- MIC Candida lipolytica KKP 322 [9]: 4 µg/mL (≈ 3.96 µM)
- Antifungal activity Candida albicans ATCC 10231 IC50 [10]: 3.14 µg/mL
- Antifungal activity Candida albicans ATCC 10231 MIC [10]: 4 µg/mL
- MIC Candida albicans ATCC 10231 [10]: 4 µg/mL (≈ 3.96 µM)
- MIC Candida arborea KKP 319 (Candida arborea KKP 319): 8 µg/mL (≈ 7.92 µM)
- Antifungal activity Candida tropicalis KKP 334 MIC [11]: 4 µg/mL
- MIC Trichoderma viride LOCK E159 [12]: 8 µg/mL (≈ 7.92 µM)
- Cytotoxicity IC50 LLC-PK1 (LLC-PK1): >100 µg/mL
- EH10 (Human erythrocytes): 202.34 µg/mL
- Cytotoxicity IC50 HepG2 (HepG2): 82.9 ± 19.87 µg/mL
- Cytotoxicity IC50 CCRF-CEM (CCRF-CEM): >100 µg/mL
- MIC Candida albicans STY19 (Candida albicans STY19): 4 µg/mL (≈ 3.96 µM)
- MIC Candida albicans Gu4 (Candida albicans Gu4): 8 µg/mL (≈ 7.92 µM)
- MIC Candida albicans Gu5 (Candida albicans Gu5): 8 µg/mL (≈ 7.92 µM)
- MIC Candida albicans B3 (Candida albicans B3): 8 µg/mL (≈ 7.92 µM)
- MIC Candida albicans B4 (Candida albicans B4): 8 µg/mL (≈ 7.92 µM)
- MIC Candida albicans STY7 (Candida albicans STY7): 4 µg/mL (≈ 3.96 µM)
- MIC Candida albicans STY31 (Candida albicans STY31): 4 µg/mL (≈ 3.96 µM)
- MIC Candida albicans F2 (Candida albicans F2): 4 µg/mL (≈ 3.96 µM)
- MIC Candida albicans 5674 (Candida albicans 5674): 4 µg/mL (≈ 3.96 µM)
- MIC Candida albicans F5 (Candida albicans F5): 4 µg/mL (≈ 3.96 µM)

Compound: N-[L-(N,N-dimethyl)phenylalanyl]nystatin A1 [Compound N45]
- Antifungal activity Saccharomyces cerevisiae ATCC 9763 MIC [1]: 2 µg/mL
- MIC Saccharomyces cerevisiae ATCC 9763 [1]: 2 µg/mL
- MIC Candida parapsilosis DSM 5784 [2]: 4 µg/mL
- Antifungal activity Candida glabrata DSM 11226 MIC [3]: 4 µg/mL
- MIC Candida stellatoidea CBS 1905 [4]: 4 µg/mL
- MIC Candida quilliermondii DSM 11947 [5]: 4 µg/mL
- MIC Aspergillus niger LOCK E201 [6]: 8 µg/mL
- MIC Candida dubliniensis CBS 7987 [7]: 2 µg/mL
- MIC Candida pseudotropicalis KKP 324 [8]: 4 µg/mL
- Antifungal activity Candida krusei DSM 6128 MIC (Candida krusei DSM 6128): 8 µg/mL
- MIC Candida lipolytica KKP 322 [9]: 8 µg/mL
- Antifungal activity Candida albicans ATCC 10231 IC50 [10]: 2.83 µg/mL
- Antifungal activity Candida albicans ATCC 10231 MIC [10]: 4 µg/mL
- MIC Candida albicans ATCC 10231 [10]: 4 µg/mL
- MIC Candida arborea KKP 319 (Candida arborea KKP 319): 8 µg/mL
- Antifungal activity Candida tropicalis KKP 334 MIC [11]: 4 µg/mL
- MIC Trichoderma viride LOCK E159 [12]: 16 µg/mL
- Cytotoxicity IC50 LLC-PK1 (LLC-PK1; LLC-PK1, 120 h, MTT): >100 µg/mL
- % of hemolysis at the concentration 300 μg ml^−1 (Human erythrocytes): 7.11%
- EH10 (Human erythrocytes; human erythrocytes, concentration causing 10% of hemolysis): >300 µg/mL
- Cytotoxicity IC50 HepG2 (HepG2; HepG2, 120 h, MTT): >100 µg/mL
- Cytotoxicity IC50 CCRF-CEM (CCRF-CEM; CCRF-CEM, 120 h, MTT): >100 µg/mL
- MIC Candida albicans STY19 (Candida albicans STY19): 4 µg/mL
- MIC Candida albicans Gu4 (Candida albicans Gu4): 4 µg/mL
- MIC Candida albicans Gu5 (Candida albicans Gu5): 4 µg/mL
- MIC Candida albicans B3 (Candida albicans B3): 4 µg/mL
- MIC Candida albicans B4 (Candida albicans B4): 4 µg/mL
- MIC Candida albicans STY7 (Candida albicans STY7): 8 µg/mL
- MIC Candida albicans STY31 (Candida albicans STY31): 8 µg/mL
- MIC Candida albicans F2 (Candida albicans F2): 8 µg/mL
- MIC Candida albicans 5674 (Candida albicans 5674): 8 µg/mL
- MIC Candida albicans F5 (Candida albicans F5): 8 µg/mL
